Experimental data reported in patent publication US8415342B2, “Besifloxacin ophthalmic composition for the treatment or control of infection” (Bausch & Lomb Incorporated, priority 2008, dated 2013).
Converted amounts (≈) assume the structure as drawn. Read-outs that look alike come from different tables or passages of the source.

How the values were obtained:
Assay type in all cases: cell-based
[1] = system: baseline pathogens of bacterial conjunctivitis patients; test: MIC of baseline clinical trial isolates, Studies 373, 433, 434 (all species)
CDC coryneform group G = test: MIC of clinical trial isolates, Studies 373, 433, 434; conditions: N 29
Protocol: (§1) PFGE testing was performed per standard procedures.
(§2) The antibacterial susceptibility profile of each Visit 1 bacterial isolate was determined for besifloxacin and other antimicrobials.

H. influenzae [2] = test: as above; conditions: Haemophilus influenzae, all phenotypes, N 344
Protocol: as §1, §2

S. mitis group = test: as above; conditions: Streptococcus mitis group, N 45
Protocol: as §1, §2

S. pneumoniae [3] = test: as above; conditions: Streptococcus pneumoniae, all phenotypes, N 302
Protocol: as §1, §2

Streptococcus oralis = test: as above; conditions: N 18
Protocol: as §1, §2

S. aureus [4] = test: as above; conditions: Staphylococcus aureus
S. epidermidis [5] = test: as above; conditions: Staphylococcus epidermidis
[6] = system: Corynebacterium pseudodiphtheriticum; test: as above; conditions: N 8
Staphylococcus hominis [7] = test: as above; conditions: N 9
[8] = system: Staphylococcus lugdunensis; test: as above; conditions: N 8
Streptococcus mitis = test: as above; conditions: Streptococcus mitis (listed separately from S. mitis group), N 20
Protocol: PFGE testing was performed per standard procedures. […] Analysis Populations

Streptococcus salivarius = test: as above; conditions: N 9
[9] = system: S. pneumoniae topoisomerase mutants; test: MIC against defined topoisomerase mutants; conditions: Streptococcus pneumoniae
[10] = system: S. aureus topoisomerase mutants; test: MIC against defined topoisomerase mutants; conditions: Staphylococcus aureus
[11] = system: E. coli topoisomerase mutants; test: MIC against defined topoisomerase mutants; conditions: Escherichia coli
Protocol: Furthermore, an experiment was conducted to assess the mechanism of action of besifloxacin in S. pneumoniae, S. aureus, and E. coli via step selections for isolates with decreased susceptibility to besifloxacin, as well as by testing for altered susceptibilities of ciprofloxacin-resistant variants of all three species containing genetically defined mutations in the quinolone resistance determining regions (QRDRs) of structural genes encoding DNA gyrase and topoisomerase IV (Table 2).

H. influenzae [12] = test: MIC and MBC:MIC ratio, recent ocular isolates; conditions: H. influenzae (N = 40), recent ocular isolates
Excerpt: (§3) The success of in vivo antimicrobial action depends to a large extent on the host's defense mechanisms, which ultimately sequester and kill the microorganisms that have been reduced by the bacteriostatic/bactericidal action of the antibacterial agent. Thus, it is also of interest to profile the bactericidal activity of antimicrobial agents. The assessment of in vitro bactericidal activity can be accomplished in multiple ways, for example, the time-kill method or the determination of the minimum bactericidal concentration (MBC). […] Bactericidal agents are characterized by low MBC:MIC ratios.

S. epidermidis [13] = test: MIC and MBC:MIC ratio, recent ocular isolates; conditions: Staphylococcus epidermidis; S. epidermidis (N = 15), recent ocular isolates
Excerpt: as §3

S. aureus [14] = test: MIC and MBC:MIC ratio, recent ocular isolates; conditions: Staphylococcus aureus; S. aureus (N = 30), recent ocular isolates
S. pneumoniae [15] = test: MIC and MBC:MIC ratio, recent ocular isolates; conditions: S. pneumoniae (N = 35), recent ocular isolates
[16] = system: Staphylococcus haemolyticus; test: MIC, CLSI broth microdilution, clinical isolates; conditions: Staphylococcus haemolyticus (N = 101)
Staphylococcus warneri = test: MIC, CLSI broth microdilution, clinical isolates; conditions: Staphylococcus warneri (N = 50)
Staphylococcus hominis [17] = test: MIC, CLSI broth microdilution, clinical isolates; conditions: Staphylococcus hominis (N = 50)
[18] = system: Lancefield group C, F, G streptococci; test: MIC, CLSI broth microdilution, clinical isolates; conditions: G streptococci (N = 50)
Viridans streptococci = test: MIC, CLSI broth microdilution, clinical isolates; conditions: Viridans streptococci (N = 156)
Citrobacter koseri = test: MIC, CLSI broth microdilution, clinical isolates; conditions: Citrobacter koseri (N = 100)
Klebsiella oxytoca = test: MIC, CLSI broth microdilution, clinical isolates; conditions: Klebsiella oxytoca (N = 50)
Legionella pneumophila = test: microbe, parasite or virus in culture; conditions: Legionella pneumophila
Moraxella catarrhalis = test: MIC, CLSI broth microdilution, clinical isolates; conditions: Moraxella catarrhalis (N = 101)
Morganella morganii = test: MIC, CLSI broth microdilution, clinical isolates; conditions: Morganella morganii (N = 51)

For `CC[C@H]1OC(=O)[C@H](C)[C@@H](O[C@H]2C[C@@](C)(OC)[C@@H](O)[C@H](C)O2)[C@H](C)[C@@H](O[C@@H]2O[C@H](C)C[C@H](N(C)C)[C@H]2O)[C@](C)(O)C[C@@H](C)CN(C)[C@H](C)[C@@H](O)[C@]1(C)O` [AZITH], the MIC50 ([1]; All organisms, N 1324) was 2 µg/mL, the MIC90 ([1]; All organisms, N 1324) was >8 µg/mL and the MIC50 ([1]; Gram-negative, N 438) was 2 µg/mL. The MIC90 ([1]; Gram-negative, N 438) was >8 µg/mL, the MIC50 ([1]; Gram-positive, N 886) was 1 µg/mL and the MIC90 ([1]; Gram-positive, N 886) was >8 µg/mL. The MIC90 (CDC coryneform group G) was >8 µg/mL, the MIC50 (H. influenzae [2]) was 2 µg/mL and the MIC90 (H. influenzae [2]) was 4 µg/mL. The MIC50 (S. mitis group) was 2 µg/mL, the MIC90 (S. mitis group) was 8 µg/mL and the MIC90 (S. pneumoniae [3]) was >8 µg/mL. The MIC50 (Streptococcus oralis) was 4 µg/mL, the MIC90 (Streptococcus oralis) was >8 µg/mL and the MIC50 (S. aureus [4]; all phenotypes, N 190) was 2 µg/mL. For the same molecule, the MIC90 (S. aureus [4]; all phenotypes, N 190) was >8 µg/mL, the MIC50 (S. epidermidis [5]; all phenotypes, N 111) was 1 µg/mL and the MIC90 (S. epidermidis [5]; all phenotypes, N 111) was >8 µg/mL. For the same molecule, the MIC50 [6] was >8 µg/mL, the MIC50 (Staphylococcus hominis [7]) was 4 µg/mL and the MIC50 [8] was 0.5 µg/mL. For the same molecule, the MIC50 (Streptococcus mitis) was 2 µg/mL, the MIC90 (Streptococcus mitis) was 4 µg/mL and the “MIC Range” value (Streptococcus mitis) was 0.06 to 8 µg/mL. It also gave an MIC50 (Streptococcus salivarius) of 8 µg/mL.

With `COc1c(N2C[C@@H]3CCCN[C@@H]3C2)c(F)cc2c(=O)c(C(=O)O)cn(C3CC3)c12` [Moxifloxacin] the MIC ([9]; S. pneumoniae Wild type) was 0.25 µg/mL (≈ 0.623 µM), the MIC ([9]; S. pneumoniae gyrA S81F) was 0.5 µg/mL (≈ 1.25 µM) and the MIC ([9]; S. pneumoniae parC S79Y) was 0.25 µg/mL (≈ 0.623 µM). It also gave an MIC ([9]; S. pneumoniae parC S79Y + gyrA S81F) of 4 µg/mL, an MIC ([10]; S. aureus Wild type) of 0.06 µg/mL (≈ 0.149 µM) and an MIC ([10]; S. aureus parC S80F (or E84K)) of 0.5 µg/mL (≈ 1.25 µM). It also gave an MIC ([10]; S. aureus parC S80F + gyrA S84L) of 2 µg/mL, an MIC ([11]; E. coli Wild type) of 0.06 µg/mL (≈ 0.149 µM) and an MIC ([11]; E. coli gyrA D87Y (or S83L)) of 0.5 µg/mL (≈ 1.25 µM). It also gave an MIC ([11]; E. coli gyrA S83L + parC S80R) of 4 µg/mL, an MIC ([11]; E. coli gyrA S83L + parE H445L) of 0.5 µg/mL and an MIC ([11]; E. coli gyrB D426N) of 0.12 µg/mL (≈ 0.299 µM). For the same molecule, the “MIC Range” value (H. influenzae [12]) was 0.008 to 0.03 µg/mL, the MIC50 (H. influenzae [12]; Haemophilus influenzae) was 0.015 µg/mL and the MIC90 (H. influenzae [12]; Haemophilus influenzae) was 0.03 µg/mL. For the same molecule, the MIC50 (S. epidermidis [13]) was 0.06 µg/mL, the MIC90 (S. epidermidis [13]) was > 8 µg/mL and the MIC50 (S. aureus [14]) was 0.06 µg/mL. For the same molecule, the “MIC Range” value (S. pneumoniae [15]) was 0.03 to 2 µg/mL, the MIC50 (S. pneumoniae [15]; Streptococcus pneumoniae) was 0.06 µg/mL and the MIC90 (S. pneumoniae [15]; Streptococcus pneumoniae) was 0.12 µg/mL. For the same molecule, the MIC50 [16] was 1 µg/mL (≈ 2.49 µM), the MIC90 [16] was 8 µg/mL (≈ 19.9 µM) and the MIC50 (Staphylococcus warneri) was 0.06 µg/mL (≈ 0.149 µM). It also gave an MIC90 (Staphylococcus warneri) of 4 µg/mL (≈ 9.96 µM), an MIC50 (Staphylococcus hominis [17]) of 1 µg/mL (≈ 2.49 µM) and an MIC90 (Staphylococcus hominis [17]) of 4 µg/mL (≈ 9.96 µM). For the same molecule, the “MIC Range” value [18] was 0.03 to 1 µg/mL, the MIC50 ([18]; read-out: MIC50) was 0.12 µg/mL (≈ 0.299 µM) and the MIC90 ([18]; read-out: MIC90) was 0.12 µg/mL (≈ 0.299 µM). For the same molecule, the “MIC Range” value (Viridans streptococci) was 0.03 to 4 µg/mL, the MIC50 (Viridans streptococci; read-out: MIC50) was 0.12 µg/mL (≈ 0.299 µM) and the MIC50 (Citrobacter koseri) was 0.03 µg/mL (≈ 0.0747 µM). The MIC50 (Klebsiella oxytoca) was 0.06 µg/mL (≈ 0.149 µM), the MIC90 (Klebsiella oxytoca) was 2 µg/mL (≈ 4.98 µM) and the “MIC Range” value (Klebsiella oxytoca) was 0.03 to 8 µg/mL. It also gave an MIC50 (Legionella pneumophila) of 0.03 µg/mL (≈ 0.0747 µM), an MIC90 (Legionella pneumophila) of 0.06 µg/mL (≈ 0.149 µM) and an MIC50 (Moraxella catarrhalis) of 0.03 µg/mL (≈ 0.0747 µM). The MIC90 (Moraxella catarrhalis) was 0.03 µg/mL (≈ 0.0747 µM), the “MIC Range” value (Moraxella catarrhalis) was 0.015 to 0.12 µg/mL and the MIC90 (Morganella morganii) was > 8 µg/mL. For the same molecule, the MIC90 ([1]; clinical isolates from Asia) was 2 µg/mL, the MIC90 (S. aureus [4]; MRSA, S. aureus MRSA-CS, N 9, read-out: MIC90 (due to limited isolates, highest MIC value is given)) was 0.06 µg/mL and the MIC90 (S. epidermidis [5]; MRSE, S. epidermidis MRSE-CR, N 24, read-out: MIC90) was > 8 µg/mL. It also gave an MIC90 (S. epidermidis [5]; S. epidermidis MSSE-CR, N 10, read-out: MIC90) of 8 µg/mL.
